Test results taken from US20080003438A1, “Heterocyclic siloxanes for use in biocidal coatings and materials” (Auburn University, priority 2002, published 2008).
Each block holds one compound with its values, some of them ahead of it.

Assays:
[1] = Chlorine loading of coated, chlorinated surfaces by iodometric/thiosulfate titration; type: physicochemical; conditions: for chlorine content of charged textile: oven-cured; for chlorine loading on coated cotton swatches: chlorinated with 5% CLOROX at ambient temperature for 45 minutes
Protocol: Swatches of Style 400 Bleached 100% Cotton Print Cloth (Testfabrics, Inc.) were treated with 3-triethoxysilylpropyl-5,5-dimethylhydantoin, prepared as described in Example 1, in the following manner. A treatment bath was prepared containing 5.0 g of 3-triethoxysilylpropyl-5,5-dimethylhydantoin, 3.0 g of potassium thiocyanate, 50 mL of ethanol, and 50 mL of water. After 1 hour of equilibration of the bath mixture, the cotton swatches were soaked in the bath for 10 min. After partially drying in air at ambient temperature, the swatches were cured for 1 hour at 95° C. The swatches were then soaked in a 0.5% liquid detergent solution for 15 min, rinsed with tap water, and allowed to dry in air at ambient temperature. […] The swatches were stored in a vacuum desiccator until use.
The siloxane polymer described above was coated onto 100% cotton fabric. This was accomplished by soaking swatches of the material for about 2 minutes at ambient temperature in a bath containing 5 g of the polysiloxane, 70 mL of ethanol, and 40 mL of water. The swatches were cured at 130° C. in air for 20 minutes, then soaked in 1.5% liquid detergent for 15 minutes at ambient temperature, and then rinsed thoroughly with water. […] An iodometric/thiosulfate titration indicated a chlorine loading on the cotton material of about 0.42%.
Finally, a wash test was performed on swatches of cotton containing the monomer 3-triethoxysilylpropyl-5,5-dimethylhydantoin coating and the polysiloxane coating, each chlorinated and unchlorinated, for comparison purposes. Two treatment baths were prepared, one containing an 8% solution of 3-triethoxysilylpropyl-5,5-dimethylhydantoin in a 50% solution of ethanol in water, the other containing an 8% solution of siloxane polymer prepared as described above in a 66.7% solution of ethanol in water. Identical cotton swatches were soaked in the two baths for 2.5 minutes at ambient temperature, cured in air at 130° C. for 20 minutes, soaked in 1.5% liquid detergent at ambient temperature for 15 minutes, rinsed thoroughly with water, and dried in air at 50° C. for 30 minutes. Then one-half of the swatches of each type were chlorinated by soaking them in 5% CLOROX at ambient temperature for 45 minutes. These chlorinated samples were rinsed thoroughly with water and dried in air at 50° C. for 30 minutes to remove all occluded free chlorine. Iodometric/thiosulfate titrations were performed on representative samples to determine initial chlorine loadings. The average chlorine loading for the silane monomer-coated samples was 0.61%; for the siloxane polymer-coated samples, the average chlorine loading was 0.40%. Then all types of coated swatches were subjected to laundry washing cycles using AATCC Test Method 61 (Test 2A Procedure). Samples were evaluated after 5, 10, and 50 washing cycles for retention of the coatings. Those samples not chlorinated before washing were chlorinated by the procedure described above in order to assess how much chlorine could be loaded after variable numbers of washing cycles. Those chlorinated before washing were divided into two groups with half being assessed for chlorine loading without rechlorination, the other half being rechlorinated and then assessed for chlorine loading. Three observations are clearly evident from the data in Table 3. First, both the silane and the siloxane coatings are partially lost upon successive washings. Second, prechlorination reduces the rate of loss, probably due to increasing the hydrophobicity of the surface, thus reducing the rate of hydrolysis loss of the siloxane coatings. Third, the siloxane coating, which is not chlorinated to as high a level as the silane one upon initial chlorination, is lost at a slower rate than is the silane coating. For all of the coatings, at least partial biocidal efficacy would be regenerated upon rechlorination after 50 washing cycles. […]

Staphylococcus aureus = assay: Antimicrobial activity of cotton textiles coated with acyclic silane; type: cell-based
Protocol: Cotton textiles were coated with 3-aminopropyltriethoxysilane by exposure to aqueous solutions of 5% of this compound, followed by curing the woven fabric at 100° C. for 60 minutes in air, or by use of a household dryer on high setting for 30 minutes. Swatches of the treated fabric were charged with chlorine, and then challenged with suspensions of Staphylococcus aureus; enumeration of recovery was accomplished using the methods described in Example 11. Chlorine contents of charged oven-cured textiles ranged up to 5000 ppm (5 mg per g of material) immediately after drying, but diminished to 2300 ppm in approximately 14 days at 20° C. Chlorine concentrations in dryer-prepared swatches were never higher than 2500 ppm, even when fresh. Reductions of viable organisms in freshly chlorinated oven-dried swatches were in excess of 4 logs, after as little as 15 minutes of contact. Longer contact times (30 minutes) were required to reach this level of efficacy in dryer-cured textiles.

[2] = test system: S. aureus bacteria (ATCC 6538); assay: Biocidal efficacy of chlorinated silane compound in water solution; type: cell-based; conditions: 100.8 mg/L solution, 11.02 mg/L total chlorine, chlorine-demand-free water pH 7, all contact times 5, 10, 30, 60 min, ambient temperature
Protocol: A 100.8 mg/L solution of the chlorinated silane compound, prepared as described above, containing 11.02 mg/L total chlorine content in chlorine-demand-free water at pH 7 was challenged with S. aureus bacteria (ATCC 6538) for contact times of 5, 10, 30, and 60 min at ambient temperature. Following the contact with the bacteria, further disinfectant action was quenched by adding 0.02 N sodium thiosulfate. Serial dilutions were then plated onto trypticase soy agar, and colony counts were made after 48 hours of incubation at 37° C. No growth was detected on the plates indicating a complete inactivation (>4.9 logs) at all of the contact times. Thus the chlorinated silane compound is biocidal under the conditions tested. Neither lower contact times, nor lower concentrations, were evaluated.

[3] = test system: Escherichia coli (ATCC 2666); assay: Challenge of treated cotton swatches, modified AATCC Method 100; type: cell-based; conditions: contact time interval 60-120 minutes
Protocol: (§1) Treated cotton swatches were challenged with S. aureus (ATCC 6538) and Escherichia coli (ATCC 2666) at a concentration of between 10^8 and 10^9 CFU/mL in pH 7 phosphate buffer solution using a modified version of AATCC Method 100. The swatches were quenched with 0.02 N sodium thiosulfate solution at contact times of 10, 30, 60, and 120 min. Serial dilutions of the solutions contacting the swatches were plated on nutrient agar, incubated for 48 hours at 37° C., and plate counts were made to determine the presence of viable bacteria. […] The control sample (cotton soaked in 10% bleach, rinsed, and dried) gave only a 0.4 log reduction at 30 minutes. […] The control sample (cotton soaked in 10% bleach, rinsed, and dried) gave a 0 log reduction at 120 minutes.

S. aureus (ATCC 6538) = assay: as above; type: cell-based; conditions: treated cotton swatches, at 30 minutes
Protocol: as §1

chlorine loading ([1]; cotton swatches, 5% CLOROX 5 minutes): 0.44% | chlorine loading ([1]; sand (Ottawa Sand Standard, 20-30 mesh), 50% CLOROX 15 minutes): 0.11%
Compound: CCO[Si](CCCNCCN1C(=O)NC(C)(C)C1=O)(OCC)OCC.Cl [3-[2′-(3′-triethoxysilylpropyl)aminoethyl]-5,5-dimethylhydantoin hydrochloride]

Compound: CCO[Si](CCCN)(OCC)OCC [3-aminopropyltriethoxysilane]
chlorine concentration of charged textile ([1]; cotton, dryer-prepared swatches, even when fresh): ≤ 2500 ppm | chlorine content of charged textile ([1]; cotton, after approximately 14 days at 20° C.): 2300 ppm | chlorine content of charged textile ([1]; cotton, immediately after drying): up to 5000 ppm | contact time required to reach in excess of 4 logs reduction (Staphylococcus aureus; dryer-cured cotton textiles): 30 minutes | reduction of viable organisms (Staphylococcus aureus; freshly chlorinated oven-dried cotton swatches, 15 minutes of contact): > 4 logs

Compound: CCO[Si](C)(CCCN1C(=O)NC(C)(C)C1=O)OCC [3-diethoxymethylsilylpropyl-5,5-dimethylhydantoin]
chlorine loading on coated cotton swatches ([1]; cotton): 0.733%

Compound: CCO[Si](CCCN1C(=O)C(C)(C)NC1(C)C)(OCC)OCC [3-triethoxysilylpropyl-2,2,5,5-tetramethylimidazolidin-4-one]
chlorine loading on coated cotton swatches ([1]; cotton): 0.114%

Compound: CO[Si](CCCN1C(=O)N(Cl)C(C)(C)C1=O)(OC)OC [chlorinated silane compound, 1-chloro-3-trimethoxysilylpropyl-5,5-dimethylhydantoin]
complete inactivation of S. aureus [2]: > 4.9 logs

Compound: CCCCCCCCCCCCCCCCCC[N+](C)(C)CCC[Si](OC)(OC)OC.[Cl-] [quaternary ammonium salt, dimethyloctadecyltrimethoxysilylpropylammonium chloride, reference compound]
log reduction of E. coli [3]: 2.5 logs | log reduction of S. aureus (S. aureus (ATCC 6538)): 1.8 log
